Assay: xn = mol fraction of the nth substance listed

COCCn1cc[n+](C)c1.N#C[S-] + CC1COC(=O)O1
101 kPa
Conditions	electrical conductivity [S/m]	viscosity [mPa·s]
288.15 K, x1 = 0.1022	0.963	4.19
288.15 K, x1 = 0.2001	1.05	5.1
288.15 K, x1 = 0.3021	0.967	7.1
288.15 K, x1 = 0.3996	0.843	11
288.15 K, x1 = 0.5012	0.717	15.9
288.15 K, x1 = 0.6015	0.586	22.3
288.15 K, x1 = 0.7032	0.471	34.5
288.15 K, x1 = 0.8004	0.381	50
288.15 K, x1 = 0.9002	0.286	68
288.15 K, x1 = 1	0.223	86
293.15 K, x1 = 0.1022	1.07	3.54
293.15 K, x1 = 0.2001	1.23	4.31
293.15 K, x1 = 0.3021	1.12	6.1
293.15 K, x1 = 0.3996	0.984	9.2
293.15 K, x1 = 0.5012	0.84	12.7
293.15 K, x1 = 0.6015	0.709	17.5
293.15 K, x1 = 0.7032	0.578	26.2
293.15 K, x1 = 0.8004	0.48	37.8
293.15 K, x1 = 0.9002	0.382	51
293.15 K, x1 = 1	0.315	67
298.15 K, x1 = 0.1022	1.19	3.05
298.15 K, x1 = 0.2001	1.4	3.71
298.15 K, x1 = 0.3021	1.3	5.3
298.15 K, x1 = 0.3996	1.16	7.8
298.15 K, x1 = 0.5012	1	10.4
298.15 K, x1 = 0.6015	0.844	14
298.15 K, x1 = 0.7032	0.714	20.3
298.15 K, x1 = 0.8004	0.591	29
298.15 K, x1 = 0.9002	0.492	39.7
298.15 K, x1 = 1	0.41	53
303.15 K, x1 = 0.1022	1.31	2.67
303.15 K, x1 = 0.2001	1.59	3.27
303.15 K, x1 = 0.3021	1.49	4.67
303.15 K, x1 = 0.3996	1.33	6.6
303.15 K, x1 = 0.5012	1.16	8.6
303.15 K, x1 = 0.6015	1.01	11.3
303.15 K, x1 = 0.7032	0.849	16.1
303.15 K, x1 = 0.8004	0.717	22.8
303.15 K, x1 = 0.9002	0.602	31.3
303.15 K, x1 = 1	0.52	42.1
308.15 K, x1 = 0.1022	1.44	2.38
308.15 K, x1 = 0.2001	1.79	2.91
308.15 K, x1 = 0.3021	1.69	4.11
308.15 K, x1 = 0.3996	1.53	5.7
308.15 K, x1 = 0.5012	1.34	7.2
308.15 K, x1 = 0.6015	1.17	9.4
308.15 K, x1 = 0.7032	1	13
308.15 K, x1 = 0.8004	0.867	18.2
308.15 K, x1 = 0.9002	0.749	25
308.15 K, x1 = 1	0.653	34.4
313.15 K, x1 = 0.1022	1.58	2.14
313.15 K, x1 = 0.2001	2	2.59
313.15 K, x1 = 0.3021	1.91	3.65
313.15 K, x1 = 0.3996	1.75	4.9
313.15 K, x1 = 0.5012	1.53	6.2
313.15 K, x1 = 0.6015	1.36	7.9
313.15 K, x1 = 0.7032	1.19	10.8
313.15 K, x1 = 0.8004	1.02	14.8
313.15 K, x1 = 0.9002	0.893	20.5
313.15 K, x1 = 1	0.795	28.6
318.15 K, x1 = 0.1022	1.72	1.94
318.15 K, x1 = 0.2001	2.21	2.36
318.15 K, x1 = 0.3021	2.14	3.3
318.15 K, x1 = 0.3996	1.97	4.28
318.15 K, x1 = 0.5012	1.75	5.3
318.15 K, x1 = 0.6015	1.55	6.7
318.15 K, x1 = 0.7032	1.36	9.1
318.15 K, x1 = 0.8004	1.2	12.3
318.15 K, x1 = 0.9002	1.07	17.1
318.15 K, x1 = 1	0.954	23.7
323.15 K, x1 = 0.1022	1.86	1.78
323.15 K, x1 = 0.2001	2.43	2.16
323.15 K, x1 = 0.3021	2.37	2.97
323.15 K, x1 = 0.3996	2.19	3.77
323.15 K, x1 = 0.5012	1.97	4.62
323.15 K, x1 = 0.6015	1.78	5.8
323.15 K, x1 = 0.7032	1.57	7.7
323.15 K, x1 = 0.8004	1.4	10.3
323.15 K, x1 = 0.9002	1.24	14.3
323.15 K, x1 = 1	1.12	20
328.15 K, x1 = 0.1022	2.02	1.65
328.15 K, x1 = 0.2001	2.67	1.99
328.15 K, x1 = 0.3021	2.62	2.68
328.15 K, x1 = 0.3996	2.43	3.33
328.15 K, x1 = 0.5012	2.21	4.05
328.15 K, x1 = 0.6015	1.99	5
328.15 K, x1 = 0.7032	1.78	6.6
328.15 K, x1 = 0.8004	1.6	8.8
328.15 K, x1 = 0.9002	1.45	12.1
328.15 K, x1 = 1	1.32	17.2
333.15 K, x1 = 0.1022	2.17	1.54
333.15 K, x1 = 0.2001	2.9	1.85
333.15 K, x1 = 0.3021	2.88	2.42
333.15 K, x1 = 0.3996	2.68	3
333.15 K, x1 = 0.5012	2.45	3.57
333.15 K, x1 = 0.6015	2.24	4.38
333.15 K, x1 = 0.7032	2.02	5.8
333.15 K, x1 = 0.8004	1.83	7.5
333.15 K, x1 = 0.9002	1.65	10.4
333.15 K, x1 = 1	1.51	14.8

COS(=O)(=O)[O-].Cn1cc[n+](C)c1 + CCO
Conditions	viscosity [mPa·s]
328.15 K, 100 kPa, x2 = 0.945	0.96

CCCC[n+]1ccn(C)c1.[Br-] + O=C1O[C@H]([C@@H](O)CO)C(O)=C1O + O
viscosity [mPa·s], 100 kPa
Conditions	293.15 K	298.15 K	303.15 K	308.15 K	313.15 K	318.15 K
x2 = 0, x1 = 0.0009002	1.033	0.918	0.823	0.753	0.676	0.618
x2 = 0, x1 = 0.001799	1.057	0.938	0.84	0.758	0.689	0.631
x2 = 0, x1 = 0.002696	1.069	1	0.905	0.795	0.749	0.68
x2 = 0.0003657, x1 = 0.0008999	1.04	0.925	0.831	0.761	0.684	0.626
x2 = 0.0003693, x1 = 0.001798	1.064	0.945	0.847	0.765	0.696	0.638
x2 = 0.000373, x1 = 0.002695	1.073	1.005	0.912	0.802	0.756	0.687
x2 = 0.0007293, x1 = 0.0008995	1.048	0.933	0.839	0.769	0.691	0.633
x2 = 0.0007366, x1 = 0.001797	1.071	0.952	0.854	0.772	0.703	0.645
x2 = 0.0007401, x1 = 0.002694	1.08	1.013	0.919	0.808	0.763	0.695
x2 = 0.001093, x1 = 0.0008992	1.055	0.94	0.845	0.775	0.697	0.639
x2 = 0.0011, x1 = 0.001797	1.081	0.961	0.862	0.78	0.71	0.651
x2 = 0.001111, x1 = 0.002693	1.088	1.02	0.927	0.816	0.77	0.701
x2 = 0.001456, x1 = 0.0008989	1.063	0.947	0.851	0.781	0.703	0.644
x2 = 0.001467, x1 = 0.001796	1.09	0.969	0.869	0.786	0.716	0.657
x2 = 0.001485, x1 = 0.002692	1.097	1.029	0.935	0.823	0.777	0.708
x2 = 0.001819, x1 = 0.0008986	1.071	0.954	0.859	0.788	0.71	0.65
x2 = 0.001833, x1 = 0.001795	1.097	0.976	0.876	0.793	0.723	0.664
x2 = 0.001851, x1 = 0.002691	1.106	1.038	0.941	0.83	0.785	0.715
x2 = 0.002183, x1 = 0.0008982	1.079	0.961	0.865	0.795	0.717	0.657
x2 = 0.002201, x1 = 0.001795	1.104	0.982	0.882	0.798	0.728	0.669
x2 = 0.002221, x1 = 0.00269	1.114	1.045	0.948	0.837	0.792	0.722

CCCC[n+]1ccn(C)c1.[Br-] + COCCO
viscosity [mPa·s], 100 kPa
Conditions	298.15 K	303.15 K	308.15 K	313.15 K
x1 = 0.4	–	–	43.9	28
x1 = 0.5	–	101	–	40.3
x1 = 0.7002	350	–	–	75

CCCC[n+]1ccn(C)c1.[Br-] + N[C@@H](CO)C(=O)O + O
viscosity [mPa·s], 101.3 kPa
Conditions	293.15 K	298.15 K	303.15 K	308.15 K	313.15 K
x2 = 0, x1 = 0.0007203	–	–	–	–	0.673
x2 = 0.0003632, x1 = 0.00072	1.028	0.917	0.824	0.747	0.681
x2 = 0.0003661, x1 = 0.001439	1.051	0.94	0.847	0.77	0.704
x2 = 0.0007261, x1 = 0.0007198	1.033	0.922	0.829	0.751	0.684
x2 = 0.0007318, x1 = 0.001438	1.056	0.945	0.852	0.773	0.707
x2 = 0.001089, x1 = 0.0007195	1.037	0.927	0.833	0.755	0.688
x2 = 0.001097, x1 = 0.001438	1.061	0.95	0.856	0.778	0.711
x2 = 0.001451, x1 = 0.0007192	1.043	0.931	0.838	0.759	0.693
x2 = 0.001463, x1 = 0.001437	1.067	0.954	0.861	0.782	0.716
x2 = 0.001808, x1 = 0.001437	1.072	0.959	0.865	0.787	0.72
x2 = 0.001813, x1 = 0.000719	1.047	0.936	0.842	0.764	0.697
x2 = 0.002175, x1 = 0.0007187	1.053	0.941	0.847	0.768	0.702
x2 = 0.002192, x1 = 0.001436	1.076	0.963	0.87	0.791	0.725
x2 = 0.002537, x1 = 0.0007185	1.057	0.946	0.851	0.773	0.706
x2 = 0.002557, x1 = 0.001436	1.082	0.968	0.874	0.796	0.729

— the CheMixHub ionic liquid set
